{"source": "paper PMC11434868", "about": "“Synthesis and Antiproliferative Effect of 3,4,5-Trimethoxylated Chalcones on Colorectal and Prostatic Cancer Cells” (Pharmaceuticals, 2024);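 as to PARP cleavage (89 kDa fragment): compared with untreated control cells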;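 as to cleaved caspase-3: compared with untreated control cells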;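 as to native PARP expression: compared with untreated control cells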;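 as to pro-caspase-3 expression: compared with untreated control cells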", "key": {"[1]": {"system": "HCT116", "assay": "MTT assay, antiproliferative effect on HCT116", "type": "cell-based", "conditions": "Homo sapiens", "how_it_was_run": "(§1)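 Cells grown 24 h in RPMI 1640/10% FBS, then treated. MTT: 5 nM–50 μM for 24 and 48 h, OD 550 nm, viability vs control, IC50 from dose–response. Trypan blue: 48 h treatment, viable/non-viable counts by automated counter, IC50 from % viable cells vs control.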"}, "[2]": {"system": "HT-29", "assay": "MTT assay, antiproliferative effect on HT-29", "type": "cell-based, human", "conditions": "Homo sapiens", "how_it_was_run": "as §1"}, "[3]": {"system": "DU145", "assay": "MTT assay, antiproliferative effect on DU145", "type": "cell-based", "conditions": "Homo sapiens", "how_it_was_run": "as §1"}, "[4]": {"system": "HCT116", "assay": "Trypan blue dye exclusion method on HCT116", "type": "cell-based, human", "description": "(§2) Human CRC (HCT116 and HT-29) and PCa (DU145 and PC3) cell lines were purchased from the American Type Culture Collection (ATCC—LGC Standards, Molsheim, France). All cells were grown in RPMI 1640 medium supplemented with 10% FBS, 1% L-glutamine, 100 U/mL penicillin, and 100 μg/mL streptomycin. Cultures were maintained in a humidified atmosphere containing 5% CO2 at 37 °C. Cells were seeded in 75 cm^2 culture flasks at 1.2 × 10^4 cells/cm^2 for HCT116, DU145, and PC3 cells, and 2.0 × 10^4 for HT-29 cells. Cells were grown for 24 h in culture medium prior to exposure or not to obtain the synthesized compounds. Stock solutions (10^−2 M in DMSO) of each compound were diluted in culture medium to obtain appropriate final concentrations.\n(§3) • (a) MTT assay: The antiproliferative effect of all compounds was determined using MTT assay (a metabolic activity test). Briefly, cells were seeded in 96-well culture plates at 4 × 10^3 cells/well for HCT116, PC3, and DU145 cells and 6 × 10^3 cells/well for HT-29 cells (100 µL/well), and grown for 24 h in culture medium prior to exposure or not to obtain compounds 1–15 with concentrations ranging from 5 nM to 50 μM. After 24 and 48 h of treatment, MTT (5 mg/mL in PBS) was added and incubated for another 3 h. MTT was then removed from the wells before adding 100 μL/well of DMSO. The optical density was detected with a microplate reader (Multiskan FC, Thermoscientific, Bordeaux, France) at 550 nm and cell viability was expressed as a percentage of each treatment condition compared to control cells. IC50 values were calculated for all compounds from the dose–response curve. Data are expressed as the arithmetic means ± standard error of the mean (SEM) of separate experiments. All experiments were performed at least in triplicate. • (b) Trypan blue dye exclusion method: Cells were grown for 24 h then treated with compounds 10 and 13 at indicated concentrations. After 48 h of treatment, cells were trypsinized and resuspended in complete medium. Each sample was mixed with Trypan blue solution (0.14% in HBSS, Invitrogen-GIBCO, ThermoFisher, Illkirch, France). Colored (non-viable) and dye-excluding (viable) cells were counted with the LUNA-II automated cell Counter (Logos Biosystems; MC2, Aubière, France). The control was normalized to 100% including viable and dead cells. The results indicated on the histograms were expressed as the percentage of cells compared to the control. IC50 values were determined from the percentages of viable cells compared to the control."}, "[5]": {"system": "HT-29", "assay": "Trypan blue dye exclusion method on HT-29", "type": "cell-based, human", "description": "as §2, §3"}, "[6]": {"system": "DU145", "assay": "Trypan blue dye exclusion method on DU145", "type": "cell-based, human", "description": "as §2, §3"}, "[7]": {"system": "PC3", "assay": "Trypan blue dye exclusion method on PC3", "type": "cell-based, human", "description": "as §2, §3"}, "[8]": {"system": "caspase-3 and PARP in HCT116 cells", "assay": "Western blot of apoptosis-related proteins in HCT116", "type": "cell-based, human", "conditions": "HCT116, 48 h", "description": "(§4) For total protein extraction, collected samples of each condition were washed in PBS. Then, the total cell pool was centrifuged at 200 g for 5 min at 4 °C and homogenized in RIPA lysis buffer (50 mM HEPES, pH 7.5, 150 mM NaCl, 1% sodium deoxycholate, 1% NP-40, 0.1% SDS, […] of aprotinin) containing protease inhibitors according to the manufacturer’s instructions. After quantification of protein levels using the Bradford method, proteins ([…]) were separated on 12.5% SDS-PAGE gels and transferred to PVDF membranes (GE Healthcare Life Science—Fisher Scientific). Membranes were probed with respective antibodies against human caspase-3, cleaved caspase-3, and PARP according to the manufacturer’s instructions. After incubation with appropriate secondary antibodies, blots were developed using the “ImmobilonWestern” substrate, following the manufacturer’s protocol, and G:BOX system (Syngene, Cambridge, UK). Membranes were then reblotted with human anti-β-actin used as a loading control."}, "[9]": {"system": "caspase-3 and PARP in HT-29 cells", "assay": "Western blot of apoptosis-related proteins in HT-29", "type": "cell-based, human", "conditions": "HT-29, 48 h", "description": "as §4"}, "[10]": {"system": "caspase-3 and PARP in DU145 cells", "assay": "Western blot of apoptosis-related proteins in DU145", "type": "cell-based, human", "conditions": "DU145, 48 h", "description": "as §4"}, "[11]": {"system": "caspase-3 and PARP in PC3 cells", "assay": "Western blot of apoptosis-related proteins in PC3", "type": "cell-based, human", "conditions": "PC3, 48 h", "description": "as §4"}, "[12]": {"system": "human CRC (HCT116 and HT-29) and human PCa (DU145 and PC3) cell lines", "assay": "MTT assay, summary statements over the cell lines", "type": "cell-based", "description": "as §2, §3"}}, "data": [{"compound": "COc1cc(C(=O)/C=C/c2coc3ccc(C)cc3c2=O)cc(OC)c1OC", "note": "[chalcone 13, (E)-6-methyl-3-(3-oxo-3-(3,4,5-trimethoxyphenyl)prop-1-en-1-yl)-4H-chromen-4-one]", "values": [{"measurement": "IC50", "setting": "[1]; HCT-116, 24 h, read-out: IC50 HCT116 24 h", "value": "2.86 ± 0.2", "unit": "µM"}, {"measurement": "IC50", "setting": "[1]; HCT-116, 48 h, read-out: IC50 HCT116 48 h", "value": "2.59 ± 0.12", "unit": "µM"}, {"measurement": "IC50", "setting": "[2]; HT-29, 24 h, 24 h, read-out: IC50 HT-29 24 h", "value": "3.88 ± 0.08", "unit": "µM"}, {"measurement": "IC50", "setting": "[2]; HT-29, 48 h, 48 h, read-out: IC50 HT-29 48 h", "value": "3.1 ± 0.17", "unit": "µM"}, {"measurement": "IC50", "setting": "[3]; DU-145, 24 h, read-out: IC50 DU145 24 h", "value": "3.92 ± 0.24", "unit": "µM"}, {"measurement": "IC50", "setting": "[3]; DU-145, 48 h, read-out: IC50 DU145 48 h", "value": "3.31 ± 0.09", "unit": "µM"}, {"measurement": "Dead cells", "setting": "[4]; HCT116, 48 h, 2.5 µM", "value": 5.46, "unit": "%"}, {"measurement": "Dead cells", "setting": "[4]; HCT116, 48 h, 5 µM", "value": 11.11, "unit": "%"}, {"measurement": "Dead cells", "setting": "[4]; HCT116, 48 h, 7.5 µM", "value": 10.46, "unit": "%"}, {"measurement": "IC50", "setting": "[4]; Homo sapiens, HCT-116, 48 h, from percentages of viable cells, read-out: IC50 Trypan Blue Test HCT116", "value": 3.48, "unit": "µM"}, {"measurement": "viability at 2.5 µM", "setting": "[4]; Homo sapiens, HCT-116, HCT116, 48 h, 2.5 µM, read-out: Viable cells", "value": 74.1, "unit": "%"}, {"measurement": "viability at 5 µM", "setting": "[4]; Homo sapiens, HCT-116, HCT116, 48 h, 5 µM, read-out: Viable cells", "value": 19.6, "unit": "%"}, {"measurement": "viability at 7.5 µM", "setting": "[4]; Homo sapiens, HCT-116, HCT116, 48 h, 7.5 µM, read-out: Viable cells", "value": 10.1, "unit": "%"}, {"measurement": "Dead cells", "setting": "[5]; HT-29, 48 h, 2.5 µM", "value": 5.48, "unit": "%"}, {"measurement": "Dead cells", "setting": "[5]; HT-29, 48 h, 7.5 µM", "value": 9.04, "unit": "%"}, {"measurement": "IC50", "setting": "[5]; Homo sapiens, HT-29, 48 h, from percentages of viable cells, read-out: IC50 Trypan Blue Test HT-29", "value": 4.05, "unit": "µM"}, {"measurement": "viability at 2.5 µM", "setting": "[5]; Homo sapiens, HT-29, 48 h, 2.5 µM, read-out: Viable cells", "value": 72.2, "unit": "%"}, {"measurement": "viability at 5 µM", "setting": "[5]; Homo sapiens, HT-29, 48 h, 5 µM, read-out: Viable cells", "value": 37.6, "unit": "%"}, {"measurement": "viability at 7.5 µM", "setting": "[5]; Homo sapiens, HT-29, 48 h, 7.5 µM, read-out: Viable cells", "value": 18.5, "unit": "%"}, {"measurement": "Dead cells", "setting": "[6]; DU145, 48 h, 2.5 µM", "value": 3.24, "unit": "%"}, {"measurement": "Dead cells", "setting": "[6]; DU145, 48 h, 5 µM", "value": 8.67, "unit": "%"}, {"measurement": "Dead cells", "setting": "[6]; DU145, 48 h, 7.5 µM", "value": 6.49, "unit": "%"}, {"measurement": "IC50", "setting": "[6]; Homo sapiens, DU-145, 48 h, from percentages of viable cells, read-out: IC50 Trypan Blue Test DU145", "value": 3.98, "unit": "µM"}, {"measurement": "viability at 2.5 µM", "setting": "[6]; Homo sapiens, DU-145, DU145, 48 h, 2.5 µM, read-out: Viable cells", "value": 84.6, "unit": "%"}, {"measurement": "viability at 5 µM", "setting": "[6]; Homo sapiens, DU-145, DU145, 48 h, 5 µM, read-out: Viable cells", "value": 29.3, "unit": "%"}, {"measurement": "viability at 7.5 µM", "setting": "[6]; Homo sapiens, DU-145, DU145, 48 h, 7.5 µM, read-out: Viable cells", "value": 12.8, "unit": "%"}, {"measurement": "IC50", "setting": "[7]; Homo sapiens, PC-3, 48 h, from percentages of viable cells, read-out: IC50 Trypan Blue Test PC3", "value": 5.33, "unit": "µM"}, {"measurement": "viability at 2.5 µM", "setting": "[7]; Homo sapiens, PC-3, PC3, 48 h, 2.5 µM, read-out: Viable cells", "value": 92.8, "unit": "%"}, {"measurement": "viability at 5 µM", "setting": "[7]; Homo sapiens, PC-3, PC3, 48 h, 5 µM, read-out: Viable cells", "value": 54.3, "unit": "%"}, {"measurement": "viability at 7.5 µM", "setting": "[7]; Homo sapiens, PC-3, PC3, 48 h, 7.5 µM, read-out: Viable cells", "value": 15.4, "unit": "%"}, {"measurement": "Dead cells", "setting": "[7]; PC3, 48 h, 2.5 µM", "value": 9.51, "unit": "%"}, {"measurement": "Dead cells", "setting": "[7]; PC3, 48 h, 5 µM", "value": 6.14, "unit": "%"}, {"measurement": "Dead cells", "setting": "[7]; PC3, 48 h, 7.5 µM", "value": 4.23, "unit": "%"}, {"measurement": "cleaved caspase-3", "setting": "[8]", "value": "clearly observed"}, {"measurement": "native PARP expression", "setting": "[8]", "value": "strong decreased expression"}, {"measurement": "pro-caspase-3 expression", "setting": "[8]", "value": "decreased"}, {"measurement": "PARP cleavage (89 kDa fragment)", "setting": "[9]", "value": "clearly observed"}, {"measurement": "cleaved caspase-3", "setting": "[9]", "value": "clearly observed"}, {"measurement": "native PARP expression", "setting": "[9]", "value": "strong decreased expression"}, {"measurement": "pro-caspase-3 expression", "setting": "[9]", "value": "decreased"}, {"measurement": "PARP cleavage (89 kDa fragment)", "setting": "[10]", "value": "clearly observed"}, {"measurement": "cleaved caspase-3", "setting": "[10]", "value": "clearly observed"}, {"measurement": "native PARP expression", "setting": "[10]", "value": "strong decreased expression"}, {"measurement": "pro-caspase-3 expression", "setting": "[10]", "value": "decrease was less marked"}, {"measurement": "PARP cleavage (89 kDa fragment)", "setting": "[11]", "value": "clearly observed"}, {"measurement": "cleaved caspase-3", "setting": "[11]", "value": "clearly observed"}, {"measurement": "native PARP expression", "setting": "[11]", "value": "strong decreased expression"}, {"measurement": "pro-caspase-3 expression", "setting": "[11]", "value": "decreased"}, {"measurement": "IC50", "setting": "[12]; Homo sapiens, 48 h, read-out: IC50 over the four cell lines", "value": "2.6 to 5.1", "unit": "µM"}, {"measurement": "viability at 10 µM", "setting": "[12]; Homo sapiens, 48 h, from the concentration of 10 µM, whole cell lines", "value": "< 10", "unit": "%"}, {"measurement": "activity relative to chalcone 12", "setting": "[12]; comparison of IC50 values", "value": "four times more active"}]}]}
